According to US12180223B2 (Boehringer Ingelheim International GmbH, priority 2021, dated 2024):

What was measured:
[1] = target: T1, human TRPA1 ion channel (Homo sapiens, UniProt O75762); experiment: Assay A: TRPA1 assay (FLIPR calcium, AITC agonism, HEK293 over-expressing human TRPA1); type: cell-based; settings: read-out: hTRPA1 IC50
T1 construct: host or cells: HEK293
Experimental: A human HEK293 cell line over-expressing the human TRPA1 ion channel (Perkin Elmer, Product No. AX-004-PCL) is used as a test system for compound efficacy and potency. Compound activity is determined by measuring the effect of compounds on intracellular calcium concentration induced by AITC (Allylisothiocyanate) agonism in a FLIPRtetra system (Molecular Devices).
The cells are obtained as frozen cells in cryo-vials and stored until use at −150° C. Cells are grown in culture medium (MEM/EBSS medium with 10% FCS and 0.4 mg/ML Geneticin). […] For sub-culturing cells are detached from flasks by Versene. At the day before the assay, cells are detached, washed twice with medium (MEM/EBSS medium with 10% FCS) and 20000 cells in 20 μl/well are seeded to Poly D-Lysin biocoated 384-well plates (black, clear bottom, Cat. 356697) from Corning. Plates are incubated for 24 hours at 37° C./5% CO2 before use in the assay.
The test compounds are dissolved in 100% DMSO at a concentration of 10 mM and in a first step diluted in DMSO to a concentration of 5 mM, followed by serial dilution steps in 100% DMSO. Dilution factor and number of dilution steps may vary according to needs. Typically 8 different concentrations by 1:5 dilutions are prepared, further intermediate dilutions (1:20) of the substances are carried out with HBSS/HEPES buffer (1×HEPES, Cat. 14065 from Gibco, 20 mM HEPES, Cat. 83264 from SIGMA, 0.1% BSA Cat. 11926 from Invitrogen, pH 7.4
At the assay day cells are washed 3× with assay puffer, 20 μL buffer remaining in the wells after washing. 10 μL Ca6 kit (Cat. R8191 MolecularDevices) loading buffer in HBSS/HEPES is added to the cells and the plates are incubated with lid for 120 minutes at 37°/5% CO2. 10 μL of compound or controls in HBSS/HEPES buffer/5% DMSO from the intermediate dilution plate are carefully added to the wells. […] Finally 10 μL of the agonist AITC 50 μM dissolved in HBSS/HEPES buffer/0.05% DMSO (final concentration 10 μM) is added to the wells followed by an additional read on the FLIPRtetra device for 10 minutes. The area under the signal curve (AUC) after AITC addition is used for IC50/% inhibition calculations
Data Evaluation and Calculation:
Each assay microtiter plate contains wells with vehicle (1% DMSO) controls instead of compound as controls for AITC induced luminescence (100% CTL; high controls) and wells with vehicle controls without AITC as controls for non-specific changes in luminescence (0% CTL; low controls).
The analysis of the data is performed by the calculation of the area under signal curve of the individual wells. Based on this values the % value for the measurement of each substance concentration is calculated (AUC(sample)−AUC(low))*100/(AUC(high)−AUC(low)) using MegaLab software (in house development). The IC50 values are calculated from the % control values using MegaLab software. Calculation: [y=(a−d)/(1+(x/c)^b)+d], a=low value, d=high value; x=conc M; c=IC50 M; b=hill; y=% ctrl

[2] = Assay B: Microsomal clearance; type: in vitro ADME, human; settings: compounds of the invention; pooled liver microsomes 1 mg/ml, test compound 1 μM, NADPH, 37° C.
Experimental: Evaluation of Microsomal Clearance Assay B: Microsomal Clearance:
The metabolic degradation of the test compound is assayed at 37° C. with pooled liver microsomes. The final incubation volume of 100 μl per time point contains TRIS buffer pH 7.6 at RT (0.1 M), magnesium chloride (5 mM), microsomal protein (1 mg/ml) and the test compound at a final concentration of 1 μM.
Following a short preincubation period at 37° C., the reactions are initiated by addition of beta-nicotinamide adenine dinucleotide phosphate, reduced form (NADPH, 1 mM) and terminated by transferring an aliquot into solvent after different time points (0, 5, 15, 30, 60 min). Additionally, the NADPH-independent degradation is monitored in incubations without NADPH, terminated at the last time point. The [%] remaining test compound after NADPH independent incubation is reflected by the parameter c(control) (metabolic stability). The quenched incubations are pelleted by centrifugation (10000 g, 5 min). An aliquot of the supernatant is assayed by LC-MS/MS for the amount of parent compound. The half-life (t½ INVITRO) is determined by the slope of the semilogarithmic plot of the concentration-time profile.

[3] = Assay C: Hepatocyte clearance; type: in vitro ADME, human; settings: compounds of the invention; hepatocyte suspension, 5% species serum, test compound 1 μM, six hours
Experimental: Evaluation of Hepatocyte Clearance Assay C: Hepatocyte Clearance
The metabolic degradation of the test compound is assayed in a hepatocyte suspension. Hepatocytes (cryopreserved) are incubated in Dulbecco's modified eagle medium (supplemented with 3.5 μg glucagon/500 mL, 2.5 mg insulin/500 mL and 3.75 mg/500 mL hydrocortisone) containing 5% species serum.
The cells are incubated for six hours (incubator, orbital shaker) and samples (25 μl) are taken at 0, 0.5, 1, 2, 4 and 6 hours. Samples are transferred into acetonitrile and pelleted by centrifugation (5 min). The supernatant is transferred to a new 96-deepwell plate, evaporated under nitrogen and resuspended.
Decline of parent compound is analyzed by HPLC-MS/MS
CLint is calculated as follows CL_[…]=Dose/AUC=(C0/CD)/(AUD+clast/k)×1000/60. C0: initial concentration in the incubation [μM], CD: cell density of vital cells [10e6 cells/mL], AUD: area under the data [μM×h], clast: concentration of last data point [μM], k: slope of the regression line for parent decline [h−1].
The calculated in vitro hepatic intrinsic clearance can be scaled up to the intrinsic in vivo hepatic Clearance and used to predict hepatic in vivo blood clearance (CL) by the use of a liver model (well stirred model).

T1 sequence (O75762 whole entry): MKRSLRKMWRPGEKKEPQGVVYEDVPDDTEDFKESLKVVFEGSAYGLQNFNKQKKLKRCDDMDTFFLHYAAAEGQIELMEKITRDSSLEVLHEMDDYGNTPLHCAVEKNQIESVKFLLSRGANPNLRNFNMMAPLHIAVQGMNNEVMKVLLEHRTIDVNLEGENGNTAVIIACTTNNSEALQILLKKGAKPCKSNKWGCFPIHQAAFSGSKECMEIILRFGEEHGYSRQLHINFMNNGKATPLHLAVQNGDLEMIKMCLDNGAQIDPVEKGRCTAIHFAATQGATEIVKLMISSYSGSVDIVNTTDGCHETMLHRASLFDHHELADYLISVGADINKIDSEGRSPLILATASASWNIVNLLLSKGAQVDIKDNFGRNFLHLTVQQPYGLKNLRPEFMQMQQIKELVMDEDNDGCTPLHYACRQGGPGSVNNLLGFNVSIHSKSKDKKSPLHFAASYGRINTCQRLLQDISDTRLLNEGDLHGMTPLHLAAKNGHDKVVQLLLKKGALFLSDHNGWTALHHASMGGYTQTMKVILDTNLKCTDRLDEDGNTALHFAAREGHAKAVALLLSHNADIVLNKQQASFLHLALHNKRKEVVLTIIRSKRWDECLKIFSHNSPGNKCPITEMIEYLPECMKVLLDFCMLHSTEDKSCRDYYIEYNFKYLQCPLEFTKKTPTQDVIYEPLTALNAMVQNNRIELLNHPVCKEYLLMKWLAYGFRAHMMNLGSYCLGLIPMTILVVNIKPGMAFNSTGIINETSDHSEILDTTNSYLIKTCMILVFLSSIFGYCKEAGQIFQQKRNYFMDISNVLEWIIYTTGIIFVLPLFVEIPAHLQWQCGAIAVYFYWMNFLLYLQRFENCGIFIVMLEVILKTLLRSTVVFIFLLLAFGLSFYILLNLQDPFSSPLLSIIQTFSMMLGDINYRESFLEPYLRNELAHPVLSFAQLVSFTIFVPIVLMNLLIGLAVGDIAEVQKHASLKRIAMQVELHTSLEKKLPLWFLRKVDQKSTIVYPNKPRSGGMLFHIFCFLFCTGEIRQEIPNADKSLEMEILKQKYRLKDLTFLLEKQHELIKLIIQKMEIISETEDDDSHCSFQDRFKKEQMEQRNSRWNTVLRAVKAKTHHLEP

IC50 [1]	human LM [2]	human Hepatocytes [3]	Structure (SMILES)
12 nM	<23 % Qh	24 % Qh	NC(=O)c1csc2ncn(Cc3nc(C[C@H](O)c4ccc(I)cc4)no3)c(=O)c12 [Example 5]
77 nM	27 % Qh	61 % Qh	NC(=O)c1csc2ncn(Cc3nc(C[C@H](O)c4ccc(Cl)s4)no3)c(=O)c12 [Example 9]
22 nM		26 % Qh	Cc1ccc([C@@H](O)Cc2noc(Cn3cnc4scc(C(N)=O)c4c3=O)n2)cc1 [Example 7]
7 nM	43 % Qh	36 % Qh	NC(=O)c1csc2ncn(Cc3nc(C[C@H](O)c4cc5ccc(F)cc5s4)no3)c(=O)c12 [Example 2]
29 nM	<23 % Qh	22 % Qh	NC(=O)c1csc2ncn(Cc3nc(C[C@H](O)c4ccc(Cl)cc4)no3)c(=O)c12 [Example 1, 3-({3-[(2S)-2-(4-chlorophenyl)-2-hydroxyethyl]-1,2,4-oxadiazol-5-yl}methyl)-4-oxo-3H,4H-thieno[2,3-d]pyrimidine-5-carboxamide]
12 nM	23 % Qh	22 % Qh	NC(=O)c1csc2ncn(Cc3nc(C[C@H](O)c4cc5cc(F)ccc5o4)no3)c(=O)c12 [Example 6]
87 nM	<23 % Qh	19 % Qh	COc1ccc([C@@H](O)Cc2noc(Cn3cnc4scc(C(N)=O)c4c3=O)n2)cc1 [Example 10]
9 nM	34 % Qh	34 % Qh	NC(=O)c1csc2ncn(Cc3nc(C[C@H](O)c4cc5cc(Cl)ccc5o4)no3)c(=O)c12 [Example 4]
9 nM	39 % Qh		NC(=O)c1csc2ncn(Cc3nc(C[C@H](O)c4cc5ccccc5s4)no3)c(=O)c12 [Example 3]
57 nM	<23 % Qh	13 % Qh	NC(=O)c1csc2ncn(Cc3nc(C[C@H](O)c4ccc(F)cc4)no3)c(=O)c12 [Example 8]
